What was measured:
OBF-1 = experiment: Gene expression (RT-PCR) in differentiated B cells; format: cell-based, human; conditions: Day 7 differentiated B cells, normalized to 0.1% DMSO; FIG. 3
Method: (§1) Fresh B cell cocktail was prepared by adding 50 μg/mL of human transferrin to B cell medium (Iscove's medium with 10% PFBS, 1% P/S, and 5 μg/mL human insulin). The required volume of medium needed for the experiment was filtered through a 0.22 micron filter. Add B cell differentiation cocktail (final concentration): recombinant human Interleukin (IL)-2 (20 U/mL), IL-10 (50 ng/mL), IL-15 (10 ng/mL), CD40 Ligand/TNFSF5/histidine-tagged (50 ng/mL), polyHistidine mouse IgG1 antibody (5 μg/mL), and ODN 2006-Human TLR9 ligand (10 μg/mL) to cells. Five milliliters (1×10^5/mL) of CD19^+ B cells were added to each well of a 6-well flat-bottom plate (final cell count=5×10^5/well). Five microliters of a 1× solution of compound or DMSO was added to each test well (0.1% final concentration of DMSO) and incubated at 37{dot over (◯)}° C. for 4 days.
(§2) Cells were harvested and counted on the cell counter, an aliquot was removed for flow analysis, and the remaining cells were washed with phosphate buffered saline (PBS). Fresh B cell cocktail was prepared by adding 1 μg/ml of human transferrin to B cell medium (Iscove's medium with 10% PFBS, 1% P/S, and 5 μg/mL human insulin). The required volume of medium needed for the experiment was filtered through a 0.22 micron filter. B cell differentiation cocktail (final concentration) consisting of: recombinant human IL-2 (20 U/mL), IL-10 (50 ng/mL), IL-15 (10 ng/mL), and IL-6 (50 ng/mL) was added to cells. Fresh B cell cocktail was added to cells. Cells were transferred back to the original wells and the volume was adjusted to 5 mL. Five microliters of a 1× solution of compound or DMSO was added to each test well (0.1% final DMSO) and incubated at 37{dot over (◯)}° C. for 3 days.
(§3) On Day 4 and Day 7 cells were harvested and counted on the cell counter. A portion of the cells were then removed for flow analysis and the remaining cells were lysed with RLT buffer and stored at −80° C. for RNA extraction and gene expression. Supernatants were divided into aliquots and frozen at −20° C. for immunoglobulin assays.
(§4) Differentiated B cells (see B Cell Differentiation Assay above) were harvested for total ribonucleic acid (RNA) preparation with a Qiacube RNA extraction instrument (Qiagen, Valencia, Calif.) using QIAGEN RNeasy mini spin-column kits (Catalog #74104). Purified RNA was reverse transcribed into cDNA with thermal cycler (MJ Research, Inc., St. Bruno, Quebec, Canada) using a reverse-transcriptase kit (Applied Biosystems). The gene expression assay was carried out using 7500 real time polymerase chain reaction (RT-PCR) system (Applied Biosystems) in triplicate. A glyceraldehyde 3-phosphate dehydrogenase gene expression assay control was run for each sample and used as a normalization control. For each gene, values for samples within each experiment were normalized to the corresponding 0.1% DMSO treatment value for that particular time point.

XBP-1 = experiment: Gene expression (RT-PCR) in differentiated B cells; format: cell-based, human; conditions: Day 7 differentiated B cells, normalized to 0.1% DMSO; FIG. 3
Method: as §1, §2, §3, §4

BCL-6 = experiment: Gene expression (RT-PCR) in differentiated B cells; format: cell-based, human; conditions: Day 7 differentiated B cells, normalized to 0.1% DMSO; FIG. 3
Method: as §1, §2, §3, §4

IRF-4 = experiment: Gene expression (RT-PCR) in differentiated B cells; format: cell-based, human; conditions: Day 7 differentiated B cells, normalized to 0.1% DMSO; FIG. 3
Method: as §1, §2, §3, §4

IgJ = experiment: Gene expression (RT-PCR) in differentiated B cells; format: cell-based, human; conditions: Day 7 differentiated B cells, normalized to 0.1% DMSO; FIG. 3
Method: as §1, §2, §3, §4

BLIMP-1 = experiment: Gene expression (RT-PCR) in differentiated B cells; format: cell-based, human; conditions: Day 7 differentiated B cells, normalized to 0.1% DMSO; FIG. 3
Method: as §1, §2, §3, §4

primary human B cells = experiment: Cell viability analysis (Trypan blue live cell count) in B cell differentiation culture; format: cell-based; conditions: cell counts on Day 4 and Day 7 of the 7 day culture; FIG. 2
Method: as §1
(§5) Cells were harvested and counted on the cell counter, an aliquot was removed for flow analysis, and the remaining cells were washed with phosphate buffered saline (PBS). […]
(§6) On Day 4 and Day 7 cells were harvested and counted on the cell counter. […]
To determine live cell count, B cells (see B Cell Differentiation Assay above) were stained with 0.4% Trypan blue (Gibco cat #15250) and live cells counted using the Countess automated cell counter (Invitrogen) in duplicate samples.

[1] = tested on: primary human CD19+ B cells differentiating toward the plasma cell lineage; experiment: B cell differentiation assay, cell phenotyping by flow cytometry (CD20/CD38); format: cell-based; conditions: in vitro primary human B cell differentiation culture; FIG. 1
Method: The effect of Compound I-S on the expression of transcription factors controlling plasma cell differentiation and immunoglobulin production using an in-vitro human B-cell differentiation culture system was invesitaged according to the procedures below:
Twenty-five milliliters human buffy coat were placed into each of two 50-mL conical tubes and 25 mL sterile Hank's buffered saline solution (HBSS) were added to each conical tube. The tubes were gently mixed by inverting. Fifteen milliliters of room temperature Ficoll-Paque Plus (GE Healthcare; Cat#17-1440-02) were placed into each of four 50-mL conical tubes. Then 25 mL of the buffy coat/HBSS mixture were layered gently and slowly on top of the Ficoll. […] The cell pellet was resuspended in 20 mL of B cell medium (Iscove's modified Dulbecco's medium+10% premium fetal bovine serum [PFBS], 1% penicillin/streptomycin [P/S], and 5 μg/mL human insulin), pipetted through a 30 micron filter, and an aliquot was counted using the cell counter.
Aliquots of purified PBMCs (2×10^8 cells) were placed in tubes, centrifuged at 1200 rpm for 5 minutes, and then supernatants were discarded. […] The enriched CD19^+ cells were resuspended in 5 mL of B cell medium and counted on the cell counter. […]
as §5

IgG production = experiment: Immunoglobulin assay (ELISA) of plasmablast culture supernatants; format: cell-based, human; conditions: during plasmablast differentiation; FIG. 5
Method: as §1
(§7) Cells were harvested and counted on the cell counter, an aliquot was removed for flow analysis, and the remaining cells were washed with phosphate buffered saline (PBS). Fresh B cell cocktail was prepared by adding 1 μg/ml of human transferrin to B cell medium (Iscove's medium with 10% PFBS, 1% P/S, and 5 μg/mL human insulin). […]
as §6
(§8) Supernatants (see B Cell Differentiation Assay above) were harvested and analyzed by ELISA for IgG and IgM production (ZeptoMetrix Corp, Buffalo, N.Y.).

IgM production = experiment: as above; format: cell-based, human; conditions: during plasmablast differentiation; FIG. 4
Method: as §1, §7, §6, §8

O=C1CC[C@H](N2Cc3c(OCc4ccc(CN5CCOCC5=O)cc4)cccc3C2=O)C(=O)N1 [Compound I-S, (S)-3-(1-oxo-4-((4-((3-oxomorpholino)methyl)benzyl)oxy)isoindolin-2-yl)piperidine-2,6-dione]
expression of plasma cell lineage transcription factor OBF-1 (OBF-1): dose-dependently and significantly inhibited
expression of plasma cell lineage transcription factor XBP-1 (XBP-1): dose-dependently and significantly inhibited
expression of germinal center lineage B cell transcription factor BCL-6 (BCL-6): did not decrease
expression of plasma cell lineage transcription factor IRF-4 (IRF-4): dose-dependently and significantly inhibited
expression of plasma cell lineage transcription factor IgJ (IgJ): dose-dependently and significantly inhibited
expression of plasma cell lineage transcription factor BLIMP-1 (BLIMP-1): dose-dependently and significantly inhibited
B cell viability (live cell count) (primary human B cells): reduce B cell viability
percentage of CD20+CD38- activated B cells (ABC) [1]: increased
percentage of CD20-CD38+ plasmablasts (PB) [1]: dose-dependently reduced
IgG production (IgG production): significantly inhibited
IgM production (IgM production): significantly inhibited
